From US8959984B2, “Proteome-wide quantification of small molecule binding to cellular target proteins” (priority 2007, dated 2015)
Read-outs that look alike come from different tables or passages of the source.

Assays:
Test in all cases: binding to immobilized V16742 (IVA1/IVA2, HeLa lysate, MS)
[1] = target: BRD4 (Homo sapiens, UniProt O60885)
[2] = target: RIPK2 (Homo sapiens, UniProt O43353)
[3] = target: JAK1 (Homo sapiens, UniProt P23458)
[4] = target: ERK2 (Homo sapiens, UniProt P28482); settings: for Percent bound at 1.87 μM 16742 conc / Percent bound at 8.74 μM 16742 conc / Percent bound at 52 μM 16742 conc / Kd: Erk2
[5] = target: T1, PHKg2 (Homo sapiens, UniProt P15735)
T1 construct: endogenous in cells; host or cells: HeLa S3
T1 sequence (P15735 1-406): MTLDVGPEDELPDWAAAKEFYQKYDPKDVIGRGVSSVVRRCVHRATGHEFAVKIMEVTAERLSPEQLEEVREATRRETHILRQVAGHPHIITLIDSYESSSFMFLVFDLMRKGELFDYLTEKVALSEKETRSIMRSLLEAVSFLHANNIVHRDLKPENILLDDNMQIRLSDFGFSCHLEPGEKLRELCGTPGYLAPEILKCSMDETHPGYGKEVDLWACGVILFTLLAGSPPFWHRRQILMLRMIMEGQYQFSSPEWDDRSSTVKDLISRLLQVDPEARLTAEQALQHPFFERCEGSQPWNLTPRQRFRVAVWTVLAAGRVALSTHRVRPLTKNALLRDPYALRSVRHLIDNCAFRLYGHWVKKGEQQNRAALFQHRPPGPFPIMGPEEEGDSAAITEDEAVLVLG

[6] = target: ROCK2 (Homo sapiens, UniProt O75116)
[7] = target: JNK2 (Homo sapiens, UniProt P45984)
[8] = target: T2, GAK (Homo sapiens, UniProt O14976)
T2 sequence (O14976 1-1311): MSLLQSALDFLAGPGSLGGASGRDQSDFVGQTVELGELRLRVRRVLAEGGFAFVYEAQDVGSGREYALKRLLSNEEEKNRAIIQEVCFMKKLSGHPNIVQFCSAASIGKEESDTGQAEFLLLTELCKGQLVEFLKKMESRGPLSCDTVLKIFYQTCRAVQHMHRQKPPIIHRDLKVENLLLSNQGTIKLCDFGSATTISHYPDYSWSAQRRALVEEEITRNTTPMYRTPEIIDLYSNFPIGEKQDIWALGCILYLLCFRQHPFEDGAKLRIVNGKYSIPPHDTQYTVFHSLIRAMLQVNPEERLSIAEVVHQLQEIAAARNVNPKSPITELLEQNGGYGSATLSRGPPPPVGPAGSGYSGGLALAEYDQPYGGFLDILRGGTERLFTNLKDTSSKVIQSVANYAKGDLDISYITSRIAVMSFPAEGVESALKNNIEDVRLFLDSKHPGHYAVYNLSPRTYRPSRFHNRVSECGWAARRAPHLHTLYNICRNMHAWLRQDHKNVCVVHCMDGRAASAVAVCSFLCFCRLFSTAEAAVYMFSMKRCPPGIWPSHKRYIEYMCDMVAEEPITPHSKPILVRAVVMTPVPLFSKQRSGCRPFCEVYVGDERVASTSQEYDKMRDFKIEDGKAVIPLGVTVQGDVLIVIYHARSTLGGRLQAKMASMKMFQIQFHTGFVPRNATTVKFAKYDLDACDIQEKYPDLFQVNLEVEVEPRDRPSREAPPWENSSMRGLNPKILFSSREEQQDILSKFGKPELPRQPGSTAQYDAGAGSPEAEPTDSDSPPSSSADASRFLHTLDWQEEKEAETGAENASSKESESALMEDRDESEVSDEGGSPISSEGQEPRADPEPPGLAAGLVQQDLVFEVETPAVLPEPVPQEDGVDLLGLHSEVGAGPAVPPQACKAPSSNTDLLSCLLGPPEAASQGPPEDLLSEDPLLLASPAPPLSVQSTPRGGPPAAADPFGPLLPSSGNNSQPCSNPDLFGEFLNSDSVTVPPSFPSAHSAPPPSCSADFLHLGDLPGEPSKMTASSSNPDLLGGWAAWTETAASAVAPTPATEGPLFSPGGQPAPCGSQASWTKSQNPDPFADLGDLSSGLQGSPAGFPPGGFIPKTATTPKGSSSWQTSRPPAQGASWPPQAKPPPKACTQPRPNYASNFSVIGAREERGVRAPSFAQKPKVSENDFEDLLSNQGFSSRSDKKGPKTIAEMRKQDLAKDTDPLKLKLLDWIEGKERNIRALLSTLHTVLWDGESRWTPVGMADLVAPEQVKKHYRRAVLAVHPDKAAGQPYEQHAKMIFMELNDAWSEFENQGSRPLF

[9] = target: GSK3B (Homo sapiens, UniProt P49841)
[10] = immobilized V16742, read-out: Kd

Chain of RIPK2 (O43353 whole entry): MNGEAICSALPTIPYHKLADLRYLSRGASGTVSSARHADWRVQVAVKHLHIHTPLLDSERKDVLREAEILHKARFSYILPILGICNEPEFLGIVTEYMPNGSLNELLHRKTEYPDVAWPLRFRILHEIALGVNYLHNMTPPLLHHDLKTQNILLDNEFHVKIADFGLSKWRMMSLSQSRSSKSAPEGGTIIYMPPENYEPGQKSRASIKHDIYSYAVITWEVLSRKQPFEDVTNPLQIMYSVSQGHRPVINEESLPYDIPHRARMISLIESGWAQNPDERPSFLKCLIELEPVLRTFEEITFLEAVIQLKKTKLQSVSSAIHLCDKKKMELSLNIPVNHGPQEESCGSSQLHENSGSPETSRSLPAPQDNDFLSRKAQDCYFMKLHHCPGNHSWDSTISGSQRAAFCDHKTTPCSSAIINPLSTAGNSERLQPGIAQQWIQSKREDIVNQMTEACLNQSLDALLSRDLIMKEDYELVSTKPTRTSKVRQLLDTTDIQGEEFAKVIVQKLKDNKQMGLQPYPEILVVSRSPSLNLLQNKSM
Chain of JAK1 (P23458 whole entry): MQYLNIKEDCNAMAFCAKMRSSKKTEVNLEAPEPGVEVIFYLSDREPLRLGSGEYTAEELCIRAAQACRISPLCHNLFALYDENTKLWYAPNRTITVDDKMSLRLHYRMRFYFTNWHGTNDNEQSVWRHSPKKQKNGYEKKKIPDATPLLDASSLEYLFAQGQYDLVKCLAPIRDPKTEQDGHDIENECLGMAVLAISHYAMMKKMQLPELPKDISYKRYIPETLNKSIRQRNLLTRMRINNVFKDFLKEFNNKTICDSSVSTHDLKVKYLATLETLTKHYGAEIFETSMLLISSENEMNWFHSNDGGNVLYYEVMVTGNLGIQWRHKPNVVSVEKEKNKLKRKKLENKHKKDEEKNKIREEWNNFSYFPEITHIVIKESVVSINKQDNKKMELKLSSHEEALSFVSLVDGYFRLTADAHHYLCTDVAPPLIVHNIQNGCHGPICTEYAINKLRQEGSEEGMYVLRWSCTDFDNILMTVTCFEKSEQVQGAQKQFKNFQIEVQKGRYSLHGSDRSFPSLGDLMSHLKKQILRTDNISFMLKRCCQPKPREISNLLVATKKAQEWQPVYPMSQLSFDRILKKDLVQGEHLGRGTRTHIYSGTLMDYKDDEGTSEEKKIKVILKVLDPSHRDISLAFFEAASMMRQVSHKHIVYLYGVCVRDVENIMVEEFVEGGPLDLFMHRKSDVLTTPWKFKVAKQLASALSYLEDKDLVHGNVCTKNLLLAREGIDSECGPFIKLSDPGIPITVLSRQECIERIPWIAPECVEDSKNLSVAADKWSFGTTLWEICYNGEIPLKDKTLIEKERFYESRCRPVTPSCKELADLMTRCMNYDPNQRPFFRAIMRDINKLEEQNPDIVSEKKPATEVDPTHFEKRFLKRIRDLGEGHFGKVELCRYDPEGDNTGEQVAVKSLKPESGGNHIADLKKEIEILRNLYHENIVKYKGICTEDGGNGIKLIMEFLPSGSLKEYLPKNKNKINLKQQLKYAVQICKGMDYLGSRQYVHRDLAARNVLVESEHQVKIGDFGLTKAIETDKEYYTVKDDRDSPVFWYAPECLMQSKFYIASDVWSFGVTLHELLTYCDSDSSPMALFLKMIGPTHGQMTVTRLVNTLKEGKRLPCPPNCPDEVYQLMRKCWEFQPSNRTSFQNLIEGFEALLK
Chain of ERK2 (P28482 whole entry): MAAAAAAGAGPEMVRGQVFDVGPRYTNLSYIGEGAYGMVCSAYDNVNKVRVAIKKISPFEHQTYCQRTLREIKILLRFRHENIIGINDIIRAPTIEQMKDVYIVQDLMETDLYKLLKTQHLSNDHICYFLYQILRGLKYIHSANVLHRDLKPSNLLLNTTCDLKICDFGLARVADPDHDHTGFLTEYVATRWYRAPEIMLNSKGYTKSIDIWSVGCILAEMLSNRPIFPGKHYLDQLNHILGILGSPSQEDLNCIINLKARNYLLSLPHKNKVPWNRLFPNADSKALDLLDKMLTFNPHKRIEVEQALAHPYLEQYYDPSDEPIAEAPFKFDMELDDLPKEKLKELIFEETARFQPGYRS
Chain of GSK3B (P49841 whole entry): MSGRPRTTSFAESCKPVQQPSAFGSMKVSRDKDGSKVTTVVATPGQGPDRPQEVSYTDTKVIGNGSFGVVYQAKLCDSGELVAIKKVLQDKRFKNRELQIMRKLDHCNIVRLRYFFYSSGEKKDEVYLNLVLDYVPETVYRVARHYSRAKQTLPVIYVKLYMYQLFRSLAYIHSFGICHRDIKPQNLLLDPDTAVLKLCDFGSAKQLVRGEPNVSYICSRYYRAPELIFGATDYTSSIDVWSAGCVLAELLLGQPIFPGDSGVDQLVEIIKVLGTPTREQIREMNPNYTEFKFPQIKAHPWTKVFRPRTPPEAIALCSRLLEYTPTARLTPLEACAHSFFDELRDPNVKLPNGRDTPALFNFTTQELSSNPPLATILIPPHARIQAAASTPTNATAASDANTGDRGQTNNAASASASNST
Chain of JNK2 (P45984 whole entry): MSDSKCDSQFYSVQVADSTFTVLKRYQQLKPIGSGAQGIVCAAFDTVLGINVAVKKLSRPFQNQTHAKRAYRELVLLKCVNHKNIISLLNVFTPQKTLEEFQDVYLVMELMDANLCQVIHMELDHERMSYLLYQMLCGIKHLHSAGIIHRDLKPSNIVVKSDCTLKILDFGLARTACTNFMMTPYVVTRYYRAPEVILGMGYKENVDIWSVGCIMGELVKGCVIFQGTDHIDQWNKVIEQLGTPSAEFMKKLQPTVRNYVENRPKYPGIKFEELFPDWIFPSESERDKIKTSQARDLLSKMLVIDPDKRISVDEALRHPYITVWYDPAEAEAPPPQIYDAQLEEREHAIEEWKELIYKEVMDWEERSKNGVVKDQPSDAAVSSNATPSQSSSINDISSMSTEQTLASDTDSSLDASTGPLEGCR
Chain of ROCK2 (O75116 whole entry): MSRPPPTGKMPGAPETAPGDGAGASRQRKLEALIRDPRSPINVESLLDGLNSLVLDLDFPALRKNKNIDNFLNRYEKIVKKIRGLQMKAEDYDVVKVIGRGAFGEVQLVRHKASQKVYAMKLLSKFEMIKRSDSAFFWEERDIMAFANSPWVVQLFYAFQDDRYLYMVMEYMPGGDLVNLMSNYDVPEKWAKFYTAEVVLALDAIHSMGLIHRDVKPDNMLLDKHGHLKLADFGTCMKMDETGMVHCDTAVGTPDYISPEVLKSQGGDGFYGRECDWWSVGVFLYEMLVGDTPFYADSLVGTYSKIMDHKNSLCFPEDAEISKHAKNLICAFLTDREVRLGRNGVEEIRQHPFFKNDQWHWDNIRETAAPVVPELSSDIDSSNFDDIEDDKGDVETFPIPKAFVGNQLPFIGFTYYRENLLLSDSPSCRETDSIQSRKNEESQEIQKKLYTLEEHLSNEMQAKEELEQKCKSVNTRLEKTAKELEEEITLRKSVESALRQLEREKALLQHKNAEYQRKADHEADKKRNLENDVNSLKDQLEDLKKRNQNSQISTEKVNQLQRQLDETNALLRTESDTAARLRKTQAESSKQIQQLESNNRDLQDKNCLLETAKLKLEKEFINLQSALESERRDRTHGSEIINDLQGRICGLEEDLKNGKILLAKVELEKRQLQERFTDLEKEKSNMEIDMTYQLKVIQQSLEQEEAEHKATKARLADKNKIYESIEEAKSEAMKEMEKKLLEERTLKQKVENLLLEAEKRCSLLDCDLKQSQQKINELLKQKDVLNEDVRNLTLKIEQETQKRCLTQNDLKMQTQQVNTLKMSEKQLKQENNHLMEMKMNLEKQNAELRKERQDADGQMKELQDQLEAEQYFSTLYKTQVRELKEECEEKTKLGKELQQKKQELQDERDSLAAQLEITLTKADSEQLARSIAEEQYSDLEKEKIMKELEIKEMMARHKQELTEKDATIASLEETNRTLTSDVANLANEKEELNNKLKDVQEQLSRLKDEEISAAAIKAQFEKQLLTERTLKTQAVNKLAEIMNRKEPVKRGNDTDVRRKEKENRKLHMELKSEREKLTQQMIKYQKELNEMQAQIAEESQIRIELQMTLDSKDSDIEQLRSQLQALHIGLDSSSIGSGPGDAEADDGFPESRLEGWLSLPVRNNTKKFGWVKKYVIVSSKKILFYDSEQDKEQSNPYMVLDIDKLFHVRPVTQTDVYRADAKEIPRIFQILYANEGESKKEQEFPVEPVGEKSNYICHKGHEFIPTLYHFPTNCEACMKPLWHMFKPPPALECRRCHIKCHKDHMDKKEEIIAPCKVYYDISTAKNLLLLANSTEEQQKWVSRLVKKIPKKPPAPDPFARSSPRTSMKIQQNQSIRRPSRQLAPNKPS

For `CC(C)n1c(=O)ccc2cnc(Nc3ccc(OCCN)cc3)nc21` [V16742], the Kd [1, 10] was 32 µM, the “affinity class of target for V16742” value [2] was “Moderate affinity target” and the Kd [3, 10] was 11.1 µM. The “affinity class of target for V16742” value ([4]; ERK2) was “Low affinity target”, the “Percent bound at various 16742 conc” value ([5]; Experiment 1, 52 μM 16742) was 59.42% and the Kd ([5]; Experiment 2) was 146 µM. For the same compound, the “Percent bound at various 16742 conc” value ([5]; Experiment 2, 1.87 μM 16742) was 1.94%, the “Percent bound at various 16742 conc” value ([5]; Experiment 2, 8.74 μM 16742) was 2.29% and the “Percent bound at various 16742 conc” value ([5]; Experiment 2, 52 μM 16742) was 27.11%. The “affinity class of target for V16742” value [6] was “Very low affinity target not significantly enriched in IVA2” and the “affinity class of target for V16742” value [7] was “High affinity target”.
In the case of `CC(C)n1c(=O)ccc2cnc(Nc3ccc(OCCN)cc3)nc21` [compound 16742], the “Percent bound at 1.87 μM 16742 conc” value ([1]; EXPERIMENT 1) is reported as 0.33%, the “Percent bound at 8.74 μM 16742 conc” value ([1]; EXPERIMENT 1) is reported as 6.55% and the “Percent bound at 52 μM 16742 conc” value ([1]; EXPERIMENT 1) is reported as 73.70%. The “Percent bound at 52 μM 16742 conc” value ([1]; EXPERIMENT 2) was 61.49%, the Kd ([1]; read-out: Kd Avg) was 32 µM and the “Percent bound at 1.87 μM 16742 conc” value ([2]; EXPERIMENT 1) was 3.74%. The “Percent bound at 8.74 μM 16742 conc” value ([2]; EXPERIMENT 1) was 42.39%, the “Percent bound at 52 μM 16742 conc” value ([2]; EXPERIMENT 1) was 91.89% and the Kd ([2]; EXPERIMENT 1, read-out: Kd) was 11.4 µM. The “Percent bound at 1.87 μM 16742 conc” value ([2]; EXPERIMENT 2) was 5.20%, the “Percent bound at 8.74 μM 16742 conc” value ([2]; EXPERIMENT 2) was 38.79% and the “Percent bound at 52 μM 16742 conc” value ([2]; EXPERIMENT 2) was 90.30%. The Kd ([2]; EXPERIMENT 2, read-out: Kd) was 12.4 µM, the Kd ([2]; read-out: Kd Avg) was 11.9 µM and the “Percent bound at 1.87 μM 16742 conc” value ([3]; EXPERIMENT 1) was 16.10%. For the same compound, the “Percent bound at 8.74 μM 16742 conc” value ([3]; EXPERIMENT 1) was 75.89%, the “Percent bound at 52 μM 16742 conc” value ([3]; EXPERIMENT 1) was 90.34% and the Kd ([3]; EXPERIMENT 1, read-out: Kd) was 4.76 µM. For the same compound, the “Percent bound at 1.87 μM 16742 conc” value ([3]; EXPERIMENT 2) was 8.59%, the “Percent bound at 8.74 μM 16742 conc” value ([3]; EXPERIMENT 2) was 30.74% and the “Percent bound at 52 μM 16742 conc” value ([3]; EXPERIMENT 2) was 78.69%. The Kd ([3]; EXPERIMENT 2, read-out: Kd) was 17.4 µM, the Kd ([3]; read-out: Kd Avg) was 11.1 µM and the “Percent bound at 1.87 μM 16742 conc” value ([4]; EXPERIMENT 1) was 1.41%. The “Percent bound at 8.74 μM 16742 conc” value ([4]; EXPERIMENT 1) was 5.40%, the “Percent bound at 52 μM 16742 conc” value ([4]; EXPERIMENT 1) was 70.05% and the Kd ([4]; EXPERIMENT 1, read-out: Kd) was 35.1 µM. The “Percent bound at 1.87 μM 16742 conc” value ([4]; EXPERIMENT 2) was 2.43%, the “Percent bound at 8.74 μM 16742 conc” value ([4]; EXPERIMENT 2) was 5.90% and the “Percent bound at 52 μM 16742 conc” value ([4]; EXPERIMENT 2) was 65.58%. For the same compound, the Kd ([4]; EXPERIMENT 2, read-out: Kd) was 38.5 µM, the Kd ([4]; read-out: Kd Avg) was 36.8 µM and the “Percent bound at 1.87 μM 16742 conc” value ([8]; EXPERIMENT 1) was 8.35%. The “Percent bound at 8.74 μM 16742 conc” value ([8]; EXPERIMENT 1) was 29.77%, the “Percent bound at 52 μM 16742 conc” value ([8]; EXPERIMENT 1) was 69.07% and the Kd ([8]; EXPERIMENT 1, read-out: Kd) was 21.9 µM. The “Percent bound at 1.87 μM 16742 conc” value ([8]; EXPERIMENT 2) was 6.15%, the “Percent bound at 8.74 μM 16742 conc” value ([8]; EXPERIMENT 2) was 27.34% and the “Percent bound at 52 μM 16742 conc” value ([8]; EXPERIMENT 2) was 63.94%. The Kd ([8]; EXPERIMENT 2, read-out: Kd) was 26.7 µM, the Kd ([8]; read-out: Kd Avg) was 24.3 µM and the “Percent bound at 1.87 μM 16742 conc” value ([9]; EXPERIMENT 1) was 12.33%. The “Percent bound at 8.74 μM 16742 conc” value ([9]; EXPERIMENT 1) was 51.81%, the “Percent bound at 52 μM 16742 conc” value ([9]; EXPERIMENT 1) was 91.30% and the Kd ([9]; EXPERIMENT 1, read-out: Kd) was 8.44 µM. For the same compound, the “Percent bound at 1.87 μM 16742 conc” value ([9]; EXPERIMENT 2) was 8.04%, the “Percent bound at 8.74 μM 16742 conc” value ([9]; EXPERIMENT 2) was 41.97% and the “Percent bound at 52 μM 16742 conc” value ([9]; EXPERIMENT 2) was 88.20%. For the same compound, the Kd ([9]; EXPERIMENT 2, read-out: Kd) was 11.6 µM, the Kd ([9]; read-out: Kd Avg) was 10 µM and the “Percent bound at 1.87 μM 16742 conc” value ([7]; EXPERIMENT 1) was 68.10%. The “Percent bound at 8.74 μM 16742 conc” value ([7]; EXPERIMENT 1) was 89.45%, the “Percent bound at 52 μM 16742 conc” value ([7]; EXPERIMENT 1) was 92.48% and the Kd ([7]; EXPERIMENT 1, read-out: Kd) was 0.91 µM. For the same compound, the “Percent bound at 1.87 μM 16742 conc” value ([7]; EXPERIMENT 2) was 57.18%, the “Percent bound at 8.74 μM 16742 conc” value ([7]; EXPERIMENT 2) was 75.70% and the “Percent bound at 52 μM 16742 conc” value ([7]; EXPERIMENT 2) was 94.94%. It also gave a Kd ([7]; EXPERIMENT 2, read-out: Kd) of 1.69 µM and a Kd ([7]; read-out: Kd Avg) of 1.3 µM.
